Calls of active or inactive are those of the source. The calls are words filed in the database; no cut-off is given here.
Assays:
Gamma-secretase = assay: Modulatory activity of gamma secretase in human SKNBE2 cells assessed as decrease in Abeta42 levels incubated for 6 hrs by sandwich ELISA; assay type: cell-based
in vitro = conditions: CD1, mouse, liver microsomes
[1] = target: Gamma-secretase (Homo sapiens) (UniProt Q96BI3+Q9NZ42+Q8WW43+P49768+Q92542+P49810); assay: Inhibition of gamma-secretase in human H4 cells overexpressing human wild-type APP assessed as beta-CTF level incubated for 24 hrs by ELISA; assay type: cell-based
[2] = Drug concentration in ddY mouse plasma at 30 mg/kg, po measured after 3 hrs by LC-MS/MS analysis; assay type: ADME, organism-based
[3] = Drug concentration in ddY mouse brain at 30 mg/kg, po measured after 3 hrs by LC-MS/MS analysis; assay type: ADME, organism-based; conditions: read-out: Ct
[4] = […], ratio of drug concentration in brain to plasma at steady state in ddY mouse at 30 mg/kg, po by LC-MS/MS analysis; assay type: ADME, organism-based
[5] = Ratio of drug concentration in ddY mouse brain to IC50 for gamma secretase in human SKNBE2 cells assessed as decrease in Abeta42 levels incubated for 6 hrs by sandwich ELISA; assay type: ADME, cell-based
Mus musculus [6] = assay: In vivo modulatory activity of gamma secretase in ddY mouse assessed as reduction in Abeta42 levels in brain at 30 mg/kg, po measured after 3 hrs by ELISA relative to control; assay type: functional
Mus musculus [7] = assay: In vivo modulatory activity of gamma secretase in ddY mouse assessed as reduction in Abeta42 levels in plasma at 30 mg/kg, po measured after 3 hrs by ELISA relative to control; assay type: functional
CYP3A4 [8] = target: T1, CYP3A4 (Homo sapiens, UniProt P08684); assay: Inhibition of CYP3A4 in human liver microsomes assessed as residual activity at 5 uM using midazolam as substrate measured after 20 mins by LC-MS/MS analysis relative to control; assay type: ADME; conditions: probe midazolam, read-out: Activity
T1 sequence (P08684 whole entry): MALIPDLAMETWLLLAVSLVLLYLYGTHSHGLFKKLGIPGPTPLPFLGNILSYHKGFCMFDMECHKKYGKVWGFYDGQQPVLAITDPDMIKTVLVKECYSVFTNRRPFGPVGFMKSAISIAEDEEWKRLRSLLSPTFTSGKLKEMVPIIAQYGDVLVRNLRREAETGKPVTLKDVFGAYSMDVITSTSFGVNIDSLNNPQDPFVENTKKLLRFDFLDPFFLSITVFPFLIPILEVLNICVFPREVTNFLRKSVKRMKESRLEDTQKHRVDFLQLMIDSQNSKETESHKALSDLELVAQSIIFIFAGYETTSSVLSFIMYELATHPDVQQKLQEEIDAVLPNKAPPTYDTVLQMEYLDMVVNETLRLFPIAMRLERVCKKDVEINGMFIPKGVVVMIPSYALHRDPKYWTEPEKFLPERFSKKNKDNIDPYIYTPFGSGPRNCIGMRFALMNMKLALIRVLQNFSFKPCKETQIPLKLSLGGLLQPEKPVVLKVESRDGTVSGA

CYP3A4 [9] = target: T1, CYP3A4; assay: Inhibition of CYP3A4 in human liver microsomes assessed as residual activity at 5 uM using midazolam as substrate preincubated with enzyme for 30 mins followed by incubation with substrate for 20 mins by LC-MS/MS analysis relative to control; assay type: ADME; conditions: probe midazolam, read-out: Activity

| SMILES | IC50 (Gamma-secretase) | microsomal CLint at 0.75 h, 0.2 µM (in vitro) | further results |
| --- | --- | --- | --- |
| CCNC(=O)c1ccc(-c2c(C)nc3c(OCc4ccc(C)cc4)cccn23)cn1 | 370 nM | 438 µL/min/mg | – |
| CCNC(=O)c1ccc(-c2c(C)nc3c(OCc4ccccc4)cccn23)cc1F | > 50000 nM | 500 µL/min/mg | – |
| CCNC(=O)c1ccc(-c2c(C)nc3c(OCc4c(C)cc(C)cc4C)cccn23)cn1 | 170 nM | > 1000 µL/min/mg | – |
| CCNC(=O)c1ccc(-c2c(C)nc3c(OCc4ccccc4)cccn23)cn1 | 580 nM | 324 µL/min/mg | – |
| CCN1C(=O)c2ccc(-c3c(C)nc4c(OCc5ccccc5)cccn34)cc2C1(C)C | > 2000 nM | > 1000 µL/min/mg | – |
| CCNC(=O)c1ccc(-c2c(CO)nc3c(OCc4ccccc4)cccn23)cn1 | – | 75.7 µL/min/mg | – |
| CCNC(=O)c1ccc(-c2c(C)nc3c(OCCc4ccccc4)cccn23)cn1 | 1100 nM | > 1000 µL/min/mg | – |
| CCNC(=O)c1ccc(-c2c(C)nc3c(OCc4cccc(C(=O)N(C)C)c4)cccn23)cn1 | > 10000 nM | 77.9 µL/min/mg | – |
| CCNC(=O)c1ccc(-c2c(C)nc3c(OCc4ccc(-c5ccccc5)cc4)cccn23)cn1.Cl | 91 nM | 84.7 µL/min/mg | inhibition [1]: inactive; concentration at 3 h [2]: 10 µM; concentration at 3 h [3]: 4600 nM; Kp [4]: 0.45; Ratio [5]: 51 nmol/g/uM; inhibition in vivo at 30 mg/kg (Mus musculus [6]): 36%; inhibition in vivo at 30 mg/kg (Mus musculus [7]): 66%; activity at 20 min, 5 µM (CYP3A4 [8]): 101%; activity at 20 min, 5 µM (CYP3A4 [9]): 83% |
| CCNC(=O)c1ccc(-c2c(C)nc3c(OCc4ccccc4F)cccn23)cn1.Cl | 150 nM | 228 µL/min/mg | concentration at 3 h [2]: 2.7 µM; concentration at 3 h [3]: 750 nM; Kp [4]: 0.27; Ratio [5]: 5 nmol/g/uM; inhibition in vivo at 30 mg/kg (Mus musculus [6]): 6%; inhibition in vivo at 30 mg/kg (Mus musculus [7]): 16% |
| CCN1Cc2cc(-c3c(C)nc4c(OCc5ccccc5)cccn34)ccc2C1=O.Cl | – | – | Kp [4]: 0.72; Ratio [5]: 1.8 nmol/g/uM; inhibition in vivo at 30 mg/kg (Mus musculus [6]): 2% |
| CCNC(=O)c1ccc(-c2c(C)nc3c(OCc4cccc(F)c4)cccn23)cn1 | 240 nM | 295 µL/min/mg | – |
| CCNC(=O)c1ccc(-c2c(C#N)nc3c(OCc4ccccc4)cccn23)cn1 | – | 318 µL/min/mg | – |
| CCNC(=O)c1ccc(-c2c(C)nc3c(OCc4cccc(-c5ccccc5)c4)cccn23)cn1.Cl | 62 nM | 367 µL/min/mg | concentration at 3 h [2]: 6.6 µM; concentration at 3 h [3]: 770 nM; Kp [4]: 0.12; Ratio [5]: 12 nmol/g/uM; inhibition in vivo at 30 mg/kg (Mus musculus [6]): 6% |
| CCNC(=O)c1ccc(-c2c(C)nc3c(OCc4ccc(C)cc4C)cccn23)cn1 | – | 652 µL/min/mg | – |
| CCNC(=O)c1ccc(-c2c(C)nc3c(OCc4ccccc4-c4ccccc4)cccn23)cn1 | 390 nM | > 1000 µL/min/mg | – |
| CCNC(=O)c1ccc(-c2c(C)nc3c(OCc4ccc(-n5cncn5)cc4)cccn23)cn1 | – | 49.9 µL/min/mg | – |
| CCNC(=O)c1ccc(-c2c(COC)nc3c(OCc4ccccc4)cccn23)cn1 | 6200 nM | 350 µL/min/mg | – |
| CCN1CCc2cc(-c3c(C)nc4c(OCc5ccccc5)cccn34)ccc2C1=O | > 50000 nM | – | – |
